Measured values reported in patent US6403816B1 (Dabur Research Foundation, priority 1997, dated 2002).

Columns and labels:
DU145 = assay: Tumor cell cytotoxicity assay, prostate; assay type: cell-based; conditions: for Prostate ECS Ratio: ED50 DU145 / ED50 ECV304; for Prostate DU145 (ED50): concentration causing 50% cytotoxicity
Description: (§1) The cytotoxicity assays for tumor cells have been described in detail in our application Ser. No. 09/040,856 filed in U.S. on Mar. 18, 1998.

PA-1 = assay: Tumor cell cytotoxicity assay, ovary; assay type: cell-based; conditions: for Ovary ECS Ratio: ED50 PA-1 / ED50 ECV304; for Ovary PA-1 (ED50): concentration causing 50% cytotoxicity
Description: as §1

L132 = assay: Tumor cell cytotoxicity assay, lung; assay type: cell-based; conditions: for Lung ECS Ratio: ED50 L132 / ED50 ECV304; for Lung L132 (ED50): concentration causing 50% cytotoxicity
Description: as §1

HT-29 = assay: Tumor cell cytotoxicity assay, colon; assay type: cell-based; conditions: for Colon ECS Ratio: ED50 HT-29 / ED50 ECV304; for Colon HT-29 (ED50): concentration causing 50% cytotoxicity
Description: as §1

ECV304 [1] = assay: ECV304 endothelial cell proliferation, MTT assay; assay type: cell-based, human; conditions: concentration causing 50% cytotoxicity; MTT after 72 hours
Procedure: 30 μl of ECV304 cell suspension (50×10^4 cells/ml in RPMI 1640 containing 10% FBS) followed by 150 μl of medium was added to the wells of a 96-well tissue culture plate (Nunc, Denmark) and incubated (37° C., 5% CO2) overnight. […] Each concentration was plated in triplicates. 20μl of medium alone was added to control wells. After 72 hours of incubation an MTT assay (Mosmann, 1983) was performed and percentage inhibition in proliferation of treated cells was calculated with respect to control cells.

ECV304 [2] = assay: Tube-like-structure (TLS) formation of ECV304 cells on Matrigel; assay type: cell-based, human; conditions: 24-48 hours
Procedure: Matrigel (70 μl) was placed into each well of a 96-well culture plate at 4° C. and was allowed to polymerize by incubation at 37° C. for 30 min. ECV304 (1×10^4) cells were seeded on the Matrigel in 200 μl DMEM containing 10% FBS. […] Five different phase-contrast microscopic fields (4×) were viewed and total tube area of the tube-like-structures (TLS) measured using Video Pro 32 Image Analysis system. Percent reduction in total tube area was given as the mean of the data from five fields. Percent inhibition of TLS was calculated with reference to Controls(no drug).

C=C(C)C1CCC2(C(=O)O)CCC3(C)C(CCC4C5(C)CCC(=NNc6ccccc6)C(C)(C)C5CCC43C)C12 (stereo not drawn) [MJ353-RS]
Prostate ECS Ratio (DU145): 2.7
Prostate DU145 (ED50) (DU145): 6.5 µg/mL
Ovary ECS Ratio (PA-1): 2.08
Ovary PA-1 (ED50) (PA-1): 5 µg/mL
Lung ECS Ratio (L132): 1.9
Lung L132 (ED50) (L132): 4.5 µg/mL
Colon ECS Ratio (HT-29): 4.2
Colon HT-29 (ED50) (HT-29): >10 µg/mL
Endothelial ECV304 (ED50) (ECV304 [1]): 2.4 µg/mL

COC(=O)CCOC(=O)C12CCC(C(C)(Br)CBr)C1C1CCC3C4(C)CC(Br)C(=O)C(C)(C)C4CCC3(C)C1(C)CC2 (stereo not drawn) [MJ548-RS]
Prostate ECS Ratio (DU145): >4
Prostate DU145 (ED50) (DU145): >10 µg/mL
Ovary ECS Ratio (PA-1): 1.56
Ovary PA-1 (ED50) (PA-1): 3.9 µg/mL
Lung ECS Ratio (L132): >4
Lung L132 (ED50) (L132): >10 µg/mL
Colon ECS Ratio (HT-29): 4.0
Colon HT-29 (ED50) (HT-29): >10 µg/mL
Endothelial ECV304 (ED50) (ECV304 [1]): 2.5 µg/mL

CC(C)C1CCC2(C(=O)O)CCC3(C)C(CCC4C5(C)CCC(NNc6ccccc6)C(C)(C)C5CCC43C)C12 (stereo not drawn) [MJ878-RS]
Prostate ECS Ratio (DU145): 19.8
Prostate DU145 (ED50) (DU145): 9.9 µg/mL
Ovary ECS Ratio (PA-1): 7.0
Ovary PA-1 (ED50) (PA-1): 3.5 µg/mL
Lung ECS Ratio (L132): 1.6
Lung L132 (ED50) (L132): 0.8 µg/mL
Colon ECS Ratio (HT-29): 3.5
Colon HT-29 (ED50) (HT-29): 1.75 µg/mL
Endothelial ECV304 (ED50) (ECV304 [1]): 0.5 µg/mL

COc1ccc(NNC2CCC3(C)C(CCC4(C)C3CCC3C5C(C(C)C)CCC5(C(=O)O)CCC34C)C2(C)C)cc1 (stereo not drawn) [MJ912-RS]
Prostate ECS Ratio (DU145): 21.1
Prostate DU145 (ED50) (DU145): 8.5 µg/mL
Lung ECS Ratio (L132): >10
Lung L132 (ED50) (L132): >4 µg/mL
Colon ECS Ratio (HT-29): 0.87
Colon HT-29 (ED50) (HT-29): 0.35 µg/mL
Endothelial ECV304 (ED50) (ECV304 [1]): 0.4 µg/mL

CC(C)C1CCC2(C(=O)O)CCC3(C)C(CCC4C5(C)CCC(OC(=O)c6cc(F)cc(F)c6)C(C)(C)C5CCC43C)C12 (stereo not drawn) [MJ935-RS]
Prostate ECS Ratio (DU145): 4.5
Prostate DU145 (ED50) (DU145): 3.2 µg/mL
Lung ECS Ratio (L132): 1.7
Lung L132 (ED50) (L132): 1.2 µg/mL
Colon ECS Ratio (HT-29): >14.3
Colon HT-29 (ED50) (HT-29): >10 µg/mL
Endothelial ECV304 (ED50) (ECV304 [1]): 0.7 µg/mL

CC(C)C1CCC2(C(=O)O)CCC3(C)C(CCC4C5(C)CCC(OC(=O)c6ccc(F)cc6F)C(C)(C)C5CCC43C)C12 (stereo not drawn) [MJ937-RS]
Prostate ECS Ratio (DU145): 3.5
Prostate DU145 (ED50) (DU145): 2.5 µg/mL
Ovary ECS Ratio (PA-1): 2.3
Ovary PA-1 (ED50) (PA-1): 1.6 µg/mL
Lung ECS Ratio (L132): 1.5
Lung L132 (ED50) (L132): 1.1 µg/mL
Colon ECS Ratio (HT-29): 2.4
Colon HT-29 (ED50) (HT-29): 1.7 µg/mL
% reduction in total tube area (ECV304 [2]; 0.5 μg/ml): 16.7%
% reduction in total tube area (ECV304 [2]; 2 μg/ml): 21%
% reduction in total tube area (ECV304 [2]; 4 μg/ml): 21.7%
Endothelial ECV304 (ED50) (ECV304 [1]): 0.7 µg/mL

C=C(C)C1CCC2(C(=O)O)CCC3(C)C(CCC4C5(C)CCC(OC(=O)c6cccc(C(F)(F)F)c6)C(C)(C)C5CCC43C)C12 (stereo not drawn) [MJ939-RS]
Prostate ECS Ratio (DU145): >11.1
Prostate DU145 (ED50) (DU145): >10 µg/mL
Ovary ECS Ratio (PA-1): >4.4
Ovary PA-1 (ED50) (PA-1): >4 µg/mL
Lung ECS Ratio (L132): 3.0
Lung L132 (ED50) (L132): 2.7 µg/mL
Colon ECS Ratio (HT-29): >11.1
Colon HT-29 (ED50) (HT-29): >10 µg/mL
Endothelial ECV304 (ED50) (ECV304 [1]): 0.9 µg/mL

CC(C)C1CCC2(C(=O)O)CCC3(C)C(CCC4C5(C)CCC(OC(=O)c6ccccc6C(F)(F)F)C(C)(C)C5CCC43C)C12 (stereo not drawn) [MJ943-RS]
Prostate ECS Ratio (DU145): >1.5
Prostate DU145 (ED50) (DU145): >4 µg/mL
Ovary ECS Ratio (PA-1): >1.53
Ovary PA-1 (ED50) (PA-1): >4 µg/mL
Lung ECS Ratio (L132): 1.5
Lung L132 (ED50) (L132): 4 µg/mL
Colon ECS Ratio (HT-29): 3.84
Colon HT-29 (ED50) (HT-29): >10 µg/mL
Endothelial ECV304 (ED50) (ECV304 [1]): 2.6 µg/mL

CC(C)C1CCC2(C(=O)O)CCC3(C)C(CCC4C5(C)CCC(N=Cc6ccc(F)c(F)c6)C(C)(C)C5CCC43C)C12 (stereo not drawn) [MJ998-RS]
Prostate ECS Ratio (DU145): 6.2
Prostate DU145 (ED50) (DU145): 2.2 µg/mL
Ovary ECS Ratio (PA-1): 3.7
Ovary PA-1 (ED50) (PA-1): 1.3 µg/mL
Lung ECS Ratio (L132): 7.1
Lung L132 (ED50) (L132): 2.5 µg/mL
Colon ECS Ratio (HT-29): 11.4
Colon HT-29 (ED50) (HT-29): 4 µg/mL
% reduction in total tube area (ECV304 [2]; 0.5 μg/ml): 21.1%
% reduction in total tube area (ECV304 [2]; 2 μg/ml): 13.4%
% reduction in total tube area (ECV304 [2]; 4 μg/ml): 33.4%
Endothelial ECV304 (ED50) (ECV304 [1]): 0.35 µg/mL

CC(C)C1CCC2(C(=O)O)CCC3(C)C(CCC4C5(C)CCC(N=Cc6ccc(F)cc6F)C(C)(C)C5CCC43C)C12 (stereo not drawn) [MJ1065-RS]
Prostate ECS Ratio (DU145): 1.04
Prostate DU145 (ED50) (DU145): 2.5 µg/mL
Ovary ECS Ratio (PA-1): 0.54
Ovary PA-1 (ED50) (PA-1): 1.3 µg/mL
Lung ECS Ratio (L132): 1.4
Lung L132 (ED50) (L132): 3.4 µg/mL
Colon ECS Ratio (HT-29): 2.04
Colon HT-29 (ED50) (HT-29): 4.9 µg/mL
% reduction in total tube area (ECV304 [2]; 0.5 μg/ml): 23.4%
% reduction in total tube area (ECV304 [2]; 2 μg/ml): 16.7%
% reduction in total tube area (ECV304 [2]; 4 μg/ml): 46.7%
Endothelial ECV304 (ED50) (ECV304 [1]): 2.4 µg/mL

C=CC(=O)OC(=O)C12CCC(C(=C)C)C1C1CCC3C4(C)CCC(O)C(C)(C)C4CCC3(C)C1(C)CC2 (stereo not drawn) [MJ1101-RS]
Prostate ECS Ratio (DU145): >2.5
Prostate DU145 (ED50) (DU145): >10 µg/mL
Ovary ECS Ratio (PA-1): >1
Ovary PA-1 (ED50) (PA-1): >4 µg/mL
Lung ECS Ratio (L132): 0.43
Lung L132 (ED50) (L132): 1.7 µg/mL
Colon ECS Ratio (HT-29): 2.5
Colon HT-29 (ED50) (HT-29): >10 µg/mL
Endothelial ECV304 (ED50) (ECV304 [1]): 4.0 µg/mL

C=CC(=O)OC(=O)C12CCC(C(C)C)C1C1CCC3C4(C)CCC(O)C(C)(C)C4CCC3(C)C1(C)CC2 (stereo not drawn) [MJ1103-RS]
Prostate ECS Ratio (DU145): >2.0
Prostate DU145 (ED50) (DU145): >4 µg/mL
Ovary ECS Ratio (PA-1): 0.75
Ovary PA-1 (ED50) (PA-1): 1.5 µg/mL
Lung ECS Ratio (L132): 2.0
Lung L132 (ED50) (L132): 4 µg/mL
Colon ECS Ratio (HT-29): 5.0
Colon HT-29 (ED50) (HT-29): 10 µg/mL
Endothelial ECV304 (ED50) (ECV304 [1]): 2.0 µg/mL

C=C(C)C1CCC2(C(=O)O)CCC3(C)C(CCC4C5(C)CCC(OC(=O)c6ccc(CCCCC)cc6)C(C)(C)C5CCC43C)C12 (stereo not drawn) [MJ1104-RS]
Prostate ECS Ratio (DU145): 1.05
Prostate DU145 (ED50) (DU145): 2 µg/mL
Ovary ECS Ratio (PA-1): >2.1
Ovary PA-1 (ED50) (PA-1): >4 µg/mL
Lung ECS Ratio (L132): 3.1
Lung L132 (ED50) (L132): 5.9 µg/mL
Colon ECS Ratio (HT-29): 1.84
Colon HT-29 (ED50) (HT-29): 3.5 µg/mL
Endothelial ECV304 (ED50) (ECV304 [1]): 1.9 µg/mL

C=C(C)C1CCC2(C(=O)O)CCC3(C)C(CCC4C5(C)CCC(OC(=O)Cc6cc(OC)ccc6OC)C(C)(C)C5CCC43C)C12 (stereo not drawn) [MJ1108-RS]
Prostate ECS Ratio (DU145): 0.55
Prostate DU145 (ED50) (DU145): 1 µg/mL
Lung ECS Ratio (L132): 2.5
Lung L132 (ED50) (L132): 4.6 µg/mL
Colon ECS Ratio (HT-29): >5.6
Colon HT-29 (ED50) (HT-29): >10 µg/mL
Endothelial ECV304 (ED50) (ECV304 [1]): 1.8 µg/mL

C=C(C)C1CCC2(C(=O)O)CCC3(C)C(CCC4C5(C)CCC(OC(=O)c6ccc(CCCCCCC)cc6)C(C)(C)C5CCC43C)C12 (stereo not drawn) [MJ1138-RS]
Prostate ECS Ratio (DU145): >5.8
Prostate DU145 (ED50) (DU145): >10 µg/mL
Ovary ECS Ratio (PA-1): >2.3
Ovary PA-1 (ED50) (PA-1): >4 µg/mL
Lung ECS Ratio (L132): 4.1
Lung L132 (ED50) (L132): 7 µg/mL
Colon ECS Ratio (HT-29): >5.89
Colon HT-29 (ED50) (HT-29): >10 µg/mL
Endothelial ECV304 (ED50) (ECV304 [1]): 1.7 µg/mL
